Blank lines part the entries; values can stand above or below the compound they belong to.
Legend:
LDLR [1] = experiment: Western analysis of LDLR protein expression in HepG2 cells after transfection of duplex RNAs; type: cell-based, human; conditions: for effect on LDLR expression (in words): 50 nM, western analysis
Method: Cell culture and transfection. Unmodified, 2′-O-methyl, and 2′-fluoro RNAs with two 2′-deoxythymidine bases at the 3′ end were obtained from Integrated DNA Technologies or Alnylam Pharmaceuticals. HepG2 (American Type Culture Collection (ATCC)) and fibroblast cells (GM04281; Coriell) were cultured with Minimum Essential Medium Eagle (MEM; Sigma) supplemented with 10% FBS, 1% MEM non-essential amino acids (Sigma), and 1 mM sodium pyruvate (Sigma). HuH-7 (Japanese Collection of Research Bioresources) and SW480 cells (ATCC) were cultured with Dulbecco's Modified Eagle's Medium (Sigma) supplemented with 10% FBS and 1 mM sodium pyruvate. Cells were plated in 6-well plates at 120,000 (HepG2 and HuH-7), 60,000 (fibroblast), or 150,000 (SW480) cells/well 2 days before transfection. Duplex RNAs were transfected into cells using Lipofectamine RNAiMAX (Invitrogen). Cationic lipid (2.4 μL for 50 nM dsRNA) was added to OptiMEM (Invitrogen) containing oligonucleotides and the oligonucleotide-lipid mixture (250 μL) was incubated at room temperature for 20 min. OptiMEM (for HepG2 and fibroblast) or full media (for HuH-7 and SW480) was added to a final volume of 1.25 mL and the mixture was applied to cells. Media was exchanged 1 day later with fresh supplemented media (2 mL).
(§1) Analysis of LDLR protein expression. Cells were harvested 4 days after transfection for western blotting analysis. Cells were detached from plates using cell dissociation solution (Sigma) and lysed with lysis buffer (50 mM Tris-HCl, 120 mM NaCl, 0.5% NP-40, 1 mM EDTA, 1 mM DTT, and protease inhibitor (Calbiochem)). Protein concentrations were quantified with BCA assay kit (Thermo Scientific). SDS-PAGE was performed using 7.5% Tris-HCl gels (Bio-Rad). Gels were run at 100 V for 60 min. After gel electrophoresis, proteins were transferred to nitrocellulose membrane (Hybond-C-Extra; GE Healthcare) at 100 V for 2 h. After blocking the membrane with 5% non-fat dry milk/TBST at room temperature for 1 h, the membrane was incubated with primary antibody specific for LDLR or β-actin at the following dilution ratio: anti-LDLR antibody (ab52818; 1:10,000; abcam), anti-β-actin antibody (1:20,000; Sigma). HRP-conjugated anti-rabbit (1:10,000; Jackson ImmunoResearch) or anti-mouse (1:20,000; Sigma) secondary antibody was used for visualizing proteins using SuperSignal West Pico Chemiluminescent Substrate (Thermo Scientific). Protein bands were quantified using ImageJ software.
(§2) Analysis of Interferon Responsive Genes. mRNA levels of the interferon responsive genes including OAST, OAS2, MX1, IFITM1, and ISGF3γ were measured by qRT-PCR. agRNAs (50 nM) and Poly I:C (0-100 ng/mL; Sigma) were transfected into HepG2 cells using the cationic lipid as described above. Three days after transfection, total RNAs from dsRNA-treated, poly I:C-treated, or untreated samples were isolated using TRIzol. The RNAs were treated with DNase I at 25° C. for 10 min, followed by reverse transcription reaction at 37° C. for 2 h. qPCR was performed using iTaq SYBR Supermix and primers specific for the interferon responsive genes (Interferon Response Detection Kit; System Biosciences). LDLR protein levels on Day 4 were also measured by western blot analysis.

[2] = test system: interferon responsive genes (OAST, OAS2, MX1, IFITM1, ISGF3γ); experiment: Analysis of interferon responsive genes by qRT-PCR in HepG2 cells; type: cell-based, human; conditions: agRNAs 50 nM, poly I:C 0-100 ng/mL, HepG2, three days after transfection
Method: as §2

AGO2 = target: T1, AGO2 (Homo sapiens, UniProt Q9UKV8); experiment: RNA immunoprecipitation (RIP) of AGO2 on the LDLR antisense transcript; type: cell-based; conditions: 50 nM, HepG2 cells
T1 construct: endogenous in cells; host or cells: HepG2
T1 sequence (Q9UKV8 whole entry): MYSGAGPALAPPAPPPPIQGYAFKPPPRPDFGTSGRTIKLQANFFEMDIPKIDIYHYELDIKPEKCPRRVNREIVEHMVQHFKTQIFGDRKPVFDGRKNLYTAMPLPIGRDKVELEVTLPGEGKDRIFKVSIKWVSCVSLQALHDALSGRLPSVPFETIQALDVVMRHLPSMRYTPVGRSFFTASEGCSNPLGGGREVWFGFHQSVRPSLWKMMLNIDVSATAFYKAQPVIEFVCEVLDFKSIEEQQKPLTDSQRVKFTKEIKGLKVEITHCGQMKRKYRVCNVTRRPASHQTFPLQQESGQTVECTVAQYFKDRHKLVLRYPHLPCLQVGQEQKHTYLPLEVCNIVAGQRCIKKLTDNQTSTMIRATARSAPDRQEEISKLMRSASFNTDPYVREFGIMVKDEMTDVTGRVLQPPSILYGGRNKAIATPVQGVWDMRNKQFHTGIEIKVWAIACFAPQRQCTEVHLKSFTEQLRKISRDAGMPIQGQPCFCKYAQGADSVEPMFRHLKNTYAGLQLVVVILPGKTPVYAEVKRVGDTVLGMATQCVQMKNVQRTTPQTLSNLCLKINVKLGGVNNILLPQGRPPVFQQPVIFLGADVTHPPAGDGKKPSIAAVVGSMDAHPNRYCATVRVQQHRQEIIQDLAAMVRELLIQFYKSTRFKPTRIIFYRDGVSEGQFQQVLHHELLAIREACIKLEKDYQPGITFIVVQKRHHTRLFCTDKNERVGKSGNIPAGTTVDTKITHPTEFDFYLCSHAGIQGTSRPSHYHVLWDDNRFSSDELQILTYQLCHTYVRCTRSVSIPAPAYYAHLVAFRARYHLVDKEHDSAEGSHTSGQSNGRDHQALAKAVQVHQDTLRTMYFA
Method: Chromatin Immunoprecipitation (ChIP)/RNA Immunoprecipitation (RIP). HepG2 cells were seeded at 1,080,000 cells in 15 cm dishes 2 days before transfection for ChIP or RIP experiments. Two dishes were treated with activating agRNAs (LDLR-24(U/U) and LDLR-28(U/U)) or mismatch controls (LDLRmm1, LDLRmm3, and LDLRmm4) (50 nM). Four days after transfection, cells were crosslinked with 1% formaldehyde. Cells were recovered by scraping and nuclei were isolated using hypotonic lysis buffer (5 mL; 10 mM Tris-HCl (pH 7.5), 10 mM NaCl, 3 mM MgCl2, 0.5% NP-40). Nuclei were lysed in lysis buffer (1 mL; 1% SDS, 10 mM EDTA, 50 mM Tris-HCl (pH 8.1), 1× Roche protease inhibitors cocktail, 40 U/mL RNasin Plus RNase Inhibitor (Promega)) and sonicated (2 pulses, 20% power, 20 sec).
The cell lysate (100 μL) was incubated overnight with antibodies in immunoprecipitation buffer (1 mL; 0.01% SDS, 1.1% Triton-X-100, 1.2 mM EDTA, 16.7 mM Tris-HCl (pH 8.1), 167 mM NaCl, and 1× Roche protease inhibitors cocktail, 40 U/mL RNasin Plus RNase Inhibitor). Monoclonal anti-RNAP II (2 μg; Millipore) and polyclonal anti-H3K27me3 (2 μg; Millipore) antibodies were used for ChIP experiments. Polyclonal anti-AGO1 (2 μg; Millipore) and polyclonal anti-AGO2 (2 μg; Millipore) antibodies were used for RIP experiments. […] PCR products were analyzed on 2.5% agarose gel and stained with ethidium bromide.

LDLR [3] = experiment: Combination treatment with 25-hydroxycholesterol and agRNAs (western, HepG2); type: cell-based, human; conditions: 25-hydroxycholesterol 2 μM
Method: as §1
Combination treatment with 25-hydroxycholesterol and agRNAs. dsRNAs (50 nM) were transfected into HepG2 cells as described above (Day 0), and the media were exchanged one day later. […]

Compound: LDLR-35: agRNA duplex; sense UCACAUUGAAAUGCUGUAAdTdT, antisense UUACAGCAUUUCAAUGUGAdTdT (sense UCACAUUGAAAUGCUGUAADTDT; antisense UUACAGCAUUUCAAUGUGADTDT; chemistry not fully specified)
effect on LDLR expression (in words) (LDLR [1]): appeared to reduce gene expression

Compound: LDLR-18: agRNA duplex; sense AAAUGACGUGGGCCCCGAGdTdT, antisense CUCGGGGCCCACGUCAUUUdTdT (sense AAAUGACGUGGGCCCCGAGDTDT; antisense CUCGGGGCCCACGUCAUUUDTDT; chemistry not fully specified)
effect on LDLR expression (in words) (LDLR [1]): appeared to reduce gene expression

interferon-responsive gene expression (OAST, OAS2, MX1, IFITM1, ISGF3γ) [2]: substantially increases
Compound: polyinosinic-polycytidylic acid [poly I:C]
effect of poly I:C on LDLR expression (LDLR [1]; any concentrations tested (0-100 ng/mL), Day 4 western): did not upregulate LDLR expression

Compound: LDLRmm3: mismatch duplex disrupting predicted seed sequence; sense UCCAGAAAAUGACGUGGGCdTdT, antisense GCCCACGUCAUUUUCUGGAdTdT (sense UCCAGAAAAUGACGUGGGCDTDT; antisense GCCCACGUCAUUUUCUGGADTDT; chemistry not fully specified)
recruitment of AGO2 to the LDLR antisense transcript (AGO2): not

Compound: C[C@H](CCCC(C)(C)O)[C@H]1CC[C@H]2[C@@H]3CC=C4C[C@@H](O)CC[C@]4(C)[C@H]3CC[C@]12C [25-hydroxycholesterol]
baseline LDLR expression with 25-hydroxycholesterol alone (LDLR [3]): lowers baseline LDLR expression

Compound: LDLR-65: agRNA duplex; sense CACUGCAAACUCCUCCCCCdTdT, antisense GGGGGAGGAGUUUGCAGUGdTdT (sense CACUGCAAACUCCUCCCCCDTDT; antisense GGGGGAGGAGUUUGCAGUGDTDT; chemistry not fully specified)
effect on LDLR expression (in words) (LDLR [1]): appeared to reduce gene expression

Compound: LDLRmm4: mismatch duplex, three mismatches outside seed sequence; sense UGCUGUAAAUGAGGAGCGCdTdT, antisense GCGCUCCUCAUUUACAGCAdTdT (sense UGCUGUAAAUGAGGAGCGCDTDT; antisense GCGCUCCUCAUUUACAGCADTDT; chemistry not fully specified)
recruitment of AGO2 to the LDLR antisense transcript (AGO2): recruitment of AGO2 | effect on LDLR expression (in words) (LDLR [1]): activation

Source: patent US20110110860A1, “MODULATION OF LDL RECEPTOR GENE EXPRESSION WITH DOUBLE-STRANDED RNAS TARGETING THE LDL RECEPTOR GENE PROMOTER” (The Board of Regents of the University of Texas System, priority 2009, published 2011)
